Data reported in US20160339022A1, “TREATMENT OF NEUROBLASTOMA WITH HISTONE DEACETYLASE INHIBITORS” (Acetylon Pharmaceuticals Inc., priority 2015, published 2016).

Experiments:
neuroblastoma cells [1] = test: Cell cycle analysis (Click-iT EdU and FxCycle PI/RNase staining); assay type: cell-based; conditions: 7 days, with ATRA
Experimental: Cells were cultured for 7 days with the indicated treatments and then stained with the Invitrogen Click-iT EdU kit and the Invitrogen FxCycle […] kits to assess frequency of cells in each stage of the cell cycle. […] The effect is enhanced by Compound B in a dose dependent manner.
In combination with ATRA, the effect on p21 is enhanced at concentrations that induce gene expression changes consistent with differentiation. At 7 days of treatment, combination effects are observed on the cell cycle, with a decreasing frequency of s-phase cells and an increasing sub-G1 population (FIG. 6B). […] EDU is increased in cells in s-phase while PI intensity indicates relative levels of DNA. Using these metrics, we illustrate the frequency of cells in the indicated states of the cell cycle.

SK-N-BE(2) cells [2] = test: Caspase activity (Promega Caspase3/7 Glo assay); assay type: cell-based
Experimental: Cells were cultured for 48 hours at the indicated concentration of drug, and then cell viability was measured by Promega CellTiter Glo assay and caspase activity was measured by Promega Caspase3/7 Glo assay. […] Anti-tumor activity is evident at 3 μM of treatment.

neuroblastoma cells [3] = test: Morphology changes / dendrite outgrowth by inverted microscope; assay type: cell-based; conditions: 3, 5 and 7 days
Experimental: Cells were cultured for 3, 5, and 7 days with the indicated treatments. Images were captured on an inverted microscope.

Wnt signaling pathway = test: Levels of Wnt-related signaling molecules; assay type: cell-based; conditions: SK-N-BE2 cells; 3 days in culture
Experimental: The levels of Wnt-related signaling molecules were assessed following treatment (SK-N-BE2 cells; 3 days in culture) with DMSO (control), Compound B alone, ATRA alone, and Compound B in combination with ATRA. b-catenin, the key signaling molecule in the Wnt pathway, is decreased by the Compound B and ATRA combination. Activated p-LRP is decreased after Compound B single agent treatment. Disheveled (Dvl) 2 & 3 is reduced by Compound B and ATRA combination treatment. Naked2 is increased by Compound B as a single agent and in combination with ATRA. Axin1 is decreased by Compound B as a single agent and in combination with ATRA.

neuroblastoma cells [4] = test: Histone acetylation in neuroblastoma cells by western blot; assay type: cell-based; conditions: western blot at 24 hours
neuroblastoma cells [5] = test: Neuroblastoma proliferation, manual cell counts over 7 days; assay type: cell-based; conditions: 1 μM and 3 μM, counted at days 3, 5 and 7
Experimental: Cells were cultured over a 7 day period and manually counted at days 3, 5, and 7.

NF-M = NF-M staining by fluorescent microscopy; assay type: cell-based; conditions: 7 days on glass slides
Experimental: Cells were cultured for 7 days with the indicated treatments on glass slides. Cells were fixed and stained with antibodies for NF-M and nucleus. Images were captured on a fluorescent microscope.

p21 = test: Expression of cell cycle regulator p21; assay type: cell-based; conditions: single agent, FIG. 6A
[6] = test system: retinoic acid receptor (RAR); test: Retinoic acid receptor ChIP-seq; assay type: cell-based; conditions: 3 μM Compound B, 48 hours
From the text: Retinoic acid receptor active binding sites defined in any individual treatment group by ChIP-seq at 48 hrs after treatment were stacked (y-axis) and aligned to the center of the binding peak (x-axis) (FIG. 13). […] Many of the genes found near region 1 binding sites are involved in regulation of retinoid signaling and are transcription factors that drive differentiation (Table 10).
Regions 1-7 of FIG. 13 are defined relative to DMSO: 1, [Combo] Increased; 2, [ATRA] Increased; 3, [ATRA] [Combo] Increased; 4, [Combo] [ATRA] [Compound B] Increased; 5, [Combo] [ATRA] Decreased; 6, [Compound B] Decreased; and 7, [Compound B] [Combo] [ATRA] Decreased.
Neuroblastoma cell line SK-N-BE(2) cells were treated with 3 μM Compound B, 1 μM ATRA, or a combination of both at 37° C. over 48 hours and compared to the solvent (DMSO) control. Antibodies to pan-retinoic acid receptor were used to pull down DNA associated with the receptor binding and sequenced. Lists of binding regions were mapped to the chromosome and “associated” with a given gene if the binding region was located within 10,000 bp up- or down-stream of the gene in question. Binding regions were represented as a heatmap where the sites were stacked on the y-axis across treatments, the “0” mark on the x-axis is the center of the binding peak and the intensity of signal indicated by color. The bracketed regions are areas of statistical significance relative to the DMSO control as indicated on the plot.
Table 12 lists the genes returned when the following conditions are met: 1) combo peak height >4 fold relative to the DMSO control group, and 2) combo expression >4 fold relative to the DMSO control group.

SK-N-BE(2) cells [7] = test: Microarray gene expression and gene set enrichment analysis; assay type: cell-based, Homo sapiens; conditions: 3 μM Compound B, 1 μM ATRA or combination, microarray 48 hr, fold relative to the DMSO control group
Experimental: Gene expression from cells treated with ATRA single agent and combination of ATRA and HDAC1/2i were assessed at 2 hrs and 48 hrs of treatment (FIG. 12A). […] A function analysis of the data using the Ingenuity IPA platform was performed by Qiagen; overlap is observed in the top hits between treatment groups.
Genes that statistically increase over 2-fold relative to the DMSO control were mapped on a Venn diagram (FIG. 12B).
Neuroblastoma cell line SK-N-BE(2) cells were treated with 3 μM Compound B, 1 μM ATRA, or a combination of both at 37° C. over 2 hours (FIG. 12A) or 48 hours (FIG. 12B) and compared to the solvent (DMSO) control.

[8] = SK-N-BE(2) cells, 1 μM ATRA or combination, fold relative to the DMSO control group

Question: With Nc1ccc(-c2cccs2)cc1NC(=O)c1ccc2c(c1)cc(C1CC1)n2CCN1CCOCC1 [Compound B, N-(2-amino-5-(thiophen-2-yl)phenyl)-2-cyclopropyl-1-(2-morpholinoethyl)-1H-indole-5-carboxamide] as the compound, how does the “effect on ATRA-mediated s-phase reduction and sub-G1 increase” value (neuroblastoma cells [1]) read?
Answer: Its value is “enhanced”.

Question: And the “caspase 3/7 induction” value (SK-N-BE(2) cells [2]; 1 μM, 48 hours)?
Answer: The value was “Minimal”.

Question: And the “concentrations at which Caspase 3/7 activity is increased” value (SK-N-BE(2) cells [2]; FIG. 2B, independent of ATRA)?
Answer: Its value is at least 2 µM.

Question: What about the “morphology / dendrite outgrowth” value (neuroblastoma cells [3]) of the same compound?
Answer: The value was “does not alter morphology”.

Question: What about the Axin1 level (Wnt signaling pathway) of the same compound?
Answer: The Axin1 level was “decreased”.

Question: What about the Naked2 level (Wnt signaling pathway) of the same compound?
Answer: The Naked2 level was “increased”.

Question: And the “activated p-LRP level” value (Wnt signaling pathway)?
Answer: The value was “decreased”.

Question: What about the histone acetylation (neuroblastoma cells [4]) of the same compound?
Answer: The histone acetylation was “induces histone acetylation”.

Question: And the “proliferation, single agent” value (neuroblastoma cells [5])?
Answer: The value was “can suppress proliferation similar to ATRA”.

Question: And the NF-M staining (NF-M)?
Answer: Its NF-M staining is “general increase in NF-M staining”.

Question: And the “expression of master cell cycle regulator p21” value (p21)?
Answer: The value was “increased expression”.

Question: What about the “RAR Binding (Peak Height), ACSL3” value [6, 8] of the same compound?
Answer: The value was 2.00.

Question: What about the “RAR Binding (Peak Height), ATP7A” value [6, 8] of the same compound?
Answer: Its value is 2.20.

Question: What about the “RAR Binding (Peak Height), CDKN1A” value [6, 8] of the same compound?
Answer: The value was 0.50.

Question: And the “RAR Binding (Peak Height), CRABP2” value [6, 8]?
Answer: The value was 0.69.

Question: And the “RAR Binding (Peak Height), CTSH” value [6, 8]?
Answer: Its value is 0.83.

Question: What about the “RAR Binding (Peak Height), CYP26A1” value [6, 8] of the same compound?
Answer: Its value is 2.33.

Question: What about the “RAR Binding (Peak Height), CYP26B1” value [6, 8] of the same compound?
Answer: Its value is 1.50.

Question: What about the “RAR Binding (Peak Height), DHRS3” value [6, 8] of the same compound?
Answer: Its value is 1.00.

Question: What about the “RAR Binding (Peak Height), DUSP6” value [6, 8] of the same compound?
Answer: The value was 3.00.

Question: And the “RAR Binding (Peak Height), ETS1” value [6, 8]?
Answer: Its value is 3.35.

Question: What about the “RAR Binding (Peak Height), HSPA5” value [6, 8] of the same compound?
Answer: The value was 2.00.

Question: What about the “RAR Binding (Peak Height), IER3” value [6, 8] of the same compound?
Answer: Its value is 2.67.

Question: What about the “RAR Binding (Peak Height), NFKBIZ” value [6, 8] of the same compound?
Answer: Its value is 3.33.

Question: And the “RAR Binding (Peak Height), PCDH18” value [6, 8]?
Answer: The value was 4.00.

Question: What about the “RAR Binding (Peak Height), PTGER2” value [6, 8] of the same compound?
Answer: The value was 0.75.

Question: What about the “RAR Binding (Peak Height), RARB” value [6, 8] of the same compound?
Answer: Its value is 1.10.

Question: And the “RAR Binding (Peak Height), RET” value [6, 8]?
Answer: The value was 1.71.

Question: And the “RAR binding to chromatin” value ([6]; SK-N-BE(2), 1 μM ATRA, vs DMSO)?
Answer: Its value is “can reduce RAR binding”.

Question: And the “Gene Expression Change, ACSL3” value (SK-N-BE(2) cells [7])?
Answer: Its value is 2.23.

Question: And the “Gene Expression Change, ATP7A” value (SK-N-BE(2) cells [7])?
Answer: The value was 1.98.

Question: What about the “Gene Expression Change, CDKN1A” value (SK-N-BE(2) cells [7]) of the same compound?
Answer: The value was 1.93.

Question: What about the “Gene Expression Change, CRABP2” value (SK-N-BE(2) cells [7]) of the same compound?
Answer: Its value is 1.18.

Question: And the “Gene Expression Change, CTSH” value (SK-N-BE(2) cells [7])?
Answer: The value was 3.05.

Question: What about the “Gene Expression Change, CYP26A1” value (SK-N-BE(2) cells [7]) of the same compound?
Answer: Its value is 0.99.

Question: And the “Gene Expression Change, CYP26B1” value (SK-N-BE(2) cells [7])?
Answer: The value was 1.87.

Question: What about the “Gene Expression Change, DHRS3” value (SK-N-BE(2) cells [7]) of the same compound?
Answer: Its value is 1.03.

Question: And the “Gene Expression Change, DUSP6” value (SK-N-BE(2) cells [7])?
Answer: Its value is 3.33.

Question: What about the “Gene Expression Change, ETS1” value (SK-N-BE(2) cells [7]) of the same compound?
Answer: The value was 3.00.

Question: What about the “Gene Expression Change, HSPA5” value (SK-N-BE(2) cells [7]) of the same compound?
Answer: The value was 3.78.

Question: What about the “Gene Expression Change, IER3” value (SK-N-BE(2) cells [7]) of the same compound?
Answer: The value was 2.33.

Question: What about the “Gene Expression Change, NFKBIZ” value (SK-N-BE(2) cells [7]) of the same compound?
Answer: The value was 1.95.

Question: What about the “Gene Expression Change, PCDH18” value (SK-N-BE(2) cells [7]) of the same compound?
Answer: Its value is 2.53.

Question: What about the “Gene Expression Change, PTGER2” value (SK-N-BE(2) cells [7]) of the same compound?
Answer: The value was 1.41.

Question: What about the “Gene Expression Change, RARB” value (SK-N-BE(2) cells [7]) of the same compound?
Answer: The value was 1.14.

Question: And the “Gene Expression Change, RET” value (SK-N-BE(2) cells [7])?
Answer: Its value is 1.34.
